Assay results as given in patent US12371428B2 (Exelixis, Inc., priority 2019, dated 2025).

Tests used:
[1] = target: Mer (phospho-Mer, MERTK-transfected 293A cells) (Homo sapiens (Human), UniProt Q12866); assay: Mer autophosphorylation ELISA in transient transfected 293A cells (Example H); assay type: cell-based; conditions: cellular activity; Mer autophosphorylation ELISA in transient transfected 293A cells
Outline: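 IC50 from phospho-Mer ELISA of MERTK-transfected 293A cell lysates after 1 h treatment with serially diluted compound in serum-free medium.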

[2] = target: Human MER (residues 528-999) (Homo sapiens (Human), UniProt Q12866); assay: Human Mer kinase assay, HTRF KinEase (Example C-2); assay type: biochemical; conditions: protocol of Example C-2 (other compounds)
Chain of Human MER (residues 528-999) (Q12866 528-999): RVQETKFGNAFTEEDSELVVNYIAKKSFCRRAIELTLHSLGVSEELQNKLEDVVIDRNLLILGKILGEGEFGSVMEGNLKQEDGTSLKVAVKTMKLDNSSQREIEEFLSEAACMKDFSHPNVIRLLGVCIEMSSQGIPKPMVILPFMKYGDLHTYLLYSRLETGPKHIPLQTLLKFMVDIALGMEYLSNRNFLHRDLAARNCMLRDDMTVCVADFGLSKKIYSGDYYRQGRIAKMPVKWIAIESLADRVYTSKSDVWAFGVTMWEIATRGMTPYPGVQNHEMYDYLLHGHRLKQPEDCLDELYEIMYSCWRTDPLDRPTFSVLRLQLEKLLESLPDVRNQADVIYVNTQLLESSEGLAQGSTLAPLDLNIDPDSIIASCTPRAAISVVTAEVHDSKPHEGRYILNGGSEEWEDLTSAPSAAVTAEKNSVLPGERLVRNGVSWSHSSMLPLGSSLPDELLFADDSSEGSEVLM
Outline: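 Recombinant MER 528-999 (1 ng/well) in buffer with 5 mM MgCl2 and 1 mM DTT was reacted with biotinylated peptide and ATP at Km (40 μM) for 60 min at room temperature. EDTA stop with SA-XL665 and Eu3+ TK antibody, then 665/620 nm HTRF read; IC50 from 4-parameter fit.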

[3] = target: Human KDR (residues 790-1356) (Homo sapiens (Human), UniProt P35968); assay: Human KDR kinase assay, HTRF KinEase (Example B-2); assay type: biochemical; conditions: protocol of Example B-2 (other compounds)
Chain of Human KDR (residues 790-1356) (P35968 790-1356): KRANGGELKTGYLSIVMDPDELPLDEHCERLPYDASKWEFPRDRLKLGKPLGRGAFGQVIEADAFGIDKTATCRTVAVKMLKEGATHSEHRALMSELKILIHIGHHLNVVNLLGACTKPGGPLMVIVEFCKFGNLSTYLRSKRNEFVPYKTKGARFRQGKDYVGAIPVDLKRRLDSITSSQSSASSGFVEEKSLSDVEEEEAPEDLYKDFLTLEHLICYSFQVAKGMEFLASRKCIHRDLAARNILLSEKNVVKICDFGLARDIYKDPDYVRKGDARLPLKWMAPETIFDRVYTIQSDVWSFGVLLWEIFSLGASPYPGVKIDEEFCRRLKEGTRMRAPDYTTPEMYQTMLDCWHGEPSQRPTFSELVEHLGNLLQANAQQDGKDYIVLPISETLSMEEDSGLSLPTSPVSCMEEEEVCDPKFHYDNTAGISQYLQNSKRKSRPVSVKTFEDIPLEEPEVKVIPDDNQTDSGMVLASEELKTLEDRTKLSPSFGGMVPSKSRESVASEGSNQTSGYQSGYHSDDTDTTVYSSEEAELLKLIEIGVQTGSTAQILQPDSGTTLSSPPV
Outline: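 Ten compound concentrations (3% DMSO final) were pre-plated, then KDR (790-1356) with biotinylated peptide in Mg/Mn/DTT buffer was added; ATP at Km (4.0 μM) started a 40 min room-temperature reaction. Detection used Eu-TK antibody and SA-XL665 in EDTA buffer; activity normalized to DMSO and reference inhibitor, IC50 by logistic fit.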

Chain of Mer (phospho-Mer, MERTK-transfected 293A cells) (Q12866 21-999): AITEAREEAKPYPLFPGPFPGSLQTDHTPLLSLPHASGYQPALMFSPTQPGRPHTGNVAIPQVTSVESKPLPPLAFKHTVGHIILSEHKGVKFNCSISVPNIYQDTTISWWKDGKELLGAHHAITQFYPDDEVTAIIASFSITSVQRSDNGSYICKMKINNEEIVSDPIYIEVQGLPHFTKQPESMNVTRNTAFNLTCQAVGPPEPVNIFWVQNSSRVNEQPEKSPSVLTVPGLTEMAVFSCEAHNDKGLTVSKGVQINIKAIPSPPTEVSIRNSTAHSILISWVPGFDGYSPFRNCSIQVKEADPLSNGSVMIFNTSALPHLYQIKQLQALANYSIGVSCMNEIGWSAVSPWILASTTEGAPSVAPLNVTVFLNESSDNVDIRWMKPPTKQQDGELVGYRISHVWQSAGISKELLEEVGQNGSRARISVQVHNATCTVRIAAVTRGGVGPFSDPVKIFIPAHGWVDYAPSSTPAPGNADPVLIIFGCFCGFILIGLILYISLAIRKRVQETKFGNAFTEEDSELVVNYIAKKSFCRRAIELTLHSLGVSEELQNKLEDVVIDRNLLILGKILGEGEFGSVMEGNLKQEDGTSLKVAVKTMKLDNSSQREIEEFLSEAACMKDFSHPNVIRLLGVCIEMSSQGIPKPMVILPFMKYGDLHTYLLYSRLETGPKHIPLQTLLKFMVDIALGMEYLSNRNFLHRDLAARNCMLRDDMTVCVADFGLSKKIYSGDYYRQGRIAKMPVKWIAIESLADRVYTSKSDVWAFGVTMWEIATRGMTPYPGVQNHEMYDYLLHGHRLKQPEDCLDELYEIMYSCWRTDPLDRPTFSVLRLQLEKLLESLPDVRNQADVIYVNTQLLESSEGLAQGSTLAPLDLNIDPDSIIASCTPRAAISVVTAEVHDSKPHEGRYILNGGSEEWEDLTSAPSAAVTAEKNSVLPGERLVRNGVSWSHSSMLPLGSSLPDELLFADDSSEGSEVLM

Row | IC50 [1] [nM] | IC50 [2] [nM] | IC50 [3] [nM] | Compound
1 | < 100 | < 100 | < 100 | COc1ccc2nccc(Oc3ccc(NC(=O)c4n[nH]c(C)c(-c5ccc(F)cc5)c4=O)cc3F)c2n1 [Compound 89, N-[3-Fluoro-4-[(6-methoxy-1,5-naphthyridin-4-yl)oxy]phenyl]-5-(4-fluorophenyl)-6-methyl-4-oxo-1H-pyridazine-3-carboxamide]
2 | < 100 | < 100 | 100 to 300 | COc1cc2nccc(Oc3ccc(NC(=O)c4cn(C)c(CO)c(-c5ccc(F)cc5)c4=O)cc3F)c2nc1OC [Compound 72, N-[4-[(6,7-Dimethoxy-1,5-naphthyridin-4-yl)oxy]-3-fluorophenyl]-5-(4-fluorophenyl)-6-(hydroxymethyl)-1-methyl-4-oxopyridine-3-carboxamide]
3 | < 100 | < 100 | < 100 | COc1cc2nccc(Oc3ccc(NC(=O)c4cn(C)c(OC)c(-c5ccc(F)cc5)c4=O)cc3F)c2nc1OC [Compound 78, N-[4-[(6,7-Dimethoxy-1,5-naphthyridin-4-yl)oxy]-3-fluorophenyl]-5-(4-fluorophenyl)-6-methoxy-1-methyl-4-oxopyridine-3-carboxamide]
4 | < 100 | < 100 | > 300 | COc1cc2nccc(Oc3ccc(NC(=O)c4cn(-c5ccn(C)n5)cc(-c5ccc(F)cc5)c4=O)cc3F)c2nc1OC [Compound 53, N-[4-[(6,7-Dimethoxy-1,5-naphthyridin-4-yl)oxy]-3-fluorophenyl]-5-(4-fluorophenyl)-1-(1-methylpyrazol-3-yl)-4-oxopyridine-3-carboxamide]
5 | < 100 | < 100 | 100 to 300 | CCc1cnc2c(Oc3ccc(NC(=O)c4cnc(C)c(-c5ccc(F)cc5)c4O)cc3F)ccnc2c1 [Compound 418, N-[4-[(7-ethyl-1,5-naphthyridin-4-yl)oxy]-3-fluorophenyl]-5-(4-fluorophenyl)-4-hydroxy-6-methylpyridine-3-carboxamide]
6 | < 100 | < 100 | < 100 | COc1cc2nccc(Oc3ccc(NC(=O)c4c(C)n(C)cc(-c5ccc(F)cc5)c4=O)cc3F)c2nc1OC [Compound 81, N-[4-[(6,7-Dimethoxy-1,5-naphthyridin-4-yl)oxy]-3-fluorophenyl]-5-(4-fluorophenyl)-1,2-dimethyl-4-oxopyridine-3-carboxamide]
7 | < 100 | < 100 | < 100 | COc1cc2nccc(Oc3ccc(NC(=O)c4c(C)nc(O)c(-c5ccc(F)cc5)c4O)cc3F)c2nc1OC [Compound 443, N-[4-[(6,7-dimethoxy-1,5-naphthyridin-4-yl)oxy]-3-fluorophenyl]-5-(4-fluorophenyl)-4,6-dihydroxy-2-methylpyridine-3-carboxamide]
8 | < 100 | < 100 | < 100 | CCn1cc(C(=O)Nc2ccc(Oc3ccnc4cc(OC)c(OC)nc34)c(F)c2)c(=O)c(-c2ccc(F)cc2)c1C [Compound 63, N-[4-[(6,7-Dimethoxy-1,5-naphthyridin-4-yl)oxy]-3-fluorophenyl]-1-ethyl-5-(4-fluorophenyl)-6-methyl-4-oxopyridine-3-carboxamide]
9 | < 100 | < 100 | < 100 | COc1cc2nccc(Oc3ccc(NC(=O)c4ncnc(-c5ccc(F)cc5)c4O)cc3F)c2nc1OC [Compound 96, N-[4-[(6,7-Dimethoxy-1,5-naphthyridin-4-yl)oxy]-3-fluorophenyl]-6-(4-fluorophenyl)-5-hydroxypyrimidine-4-carboxamide]
10 | < 100 | < 100 | < 100 | COc1cnc2c(Oc3ccc(NC(=O)c4c(C)nc(C)c(-c5ccc(F)cc5)c4O)cc3F)ccnc2c1 [Compound 66, N-[3-Fluoro-4-[(7-methoxy-1,5-naphthyridin-4-yl)oxy]phenyl]-5-(4-fluorophenyl)-4-hydroxy-2,6-dimethylpyridine-3-carboxamide]

Continued, molecule first:

Row | Compound | IC50 [1] [nM] | IC50 [2] [nM] | IC50 [3] [nM]
11 | Cc1cc(F)ccc1-c1c(C)nnc(C(=O)Nc2ccc(Oc3ccnc4cc(C)c(F)nc34)c(F)c2)c1O [Compound 430, N-[3-fluoro-4-[(6-fluoro-7-methyl-1,5-naphthyridin-4-yl)oxy]phenyl]-5-(4-fluoro-2-methylphenyl)-4-hydroxy-6-methylpyridazine-3-carboxamide] | < 100 | < 100 | > 300
12 | COc1cnc2c(Oc3ccc(NC(=O)c4cn(C)c(Cl)c(-c5ccc(F)cc5)c4=O)cc3F)ccnc2c1 [Compound 411, 6-chloro-N-[3-fluoro-4-[(7-methoxy-1,5-naphthyridin-4-yl)oxy]phenyl]-5-(4-fluorophenyl)-1-methyl-4-oxopyridine-3-carboxamide] | < 100 | < 100 | > 300
13 | COc1cnc2c(Oc3ccc(NC(=O)c4ccc(C)n(-c5ccc(F)cc5)c4=O)cc3F)ccnc2c1 [Compound 83, N-[3-Fluoro-4-[(7-methoxy-1,5-naphthyridin-4-yl)oxy]phenyl]-1-(4-fluorophenyl)-6-methyl-2-oxopyridine-3-carboxamide] | < 100 | < 100 | < 100
14 | CCn1cc(C(=O)Nc2ccc(Oc3ccnc4cc(O)cnc34)c(F)c2)c(=O)c(-c2ccc(F)cc2)c1C [Compound 410, 1-ethyl-N-[3-fluoro-4-[(7-hydroxy-1,5-naphthyridin-4-yl)oxy]phenyl]-5-(4-fluorophenyl)-6-methyl-4-oxopyridine-3-carboxamide] | 100 to 300 | < 100 | > 300
15 | COc1cnc2c(Oc3ccc(NC(=O)c4cnc(C)c(-c5c(C)cc(F)cc5C)c4O)cc3F)ccnc2c1 [Compound 417, 5-(4-fluoro-2,6-dimethylphenyl)-N-[3-fluoro-4-[(7-methoxy-1,5-naphthyridin-4-yl)oxy]phenyl]-4-hydroxy-6-methylpyridine-3-carboxamide] | 100 to 300 | 100 to 300 | > 300
16 | COc1cc2nccc(Oc3ccc(NC(=O)c4cn(C5CC5)c(C)c(-c5ccc(F)cc5C)c4=O)cc3F)c2nc1OC [Compound 439, 1-cyclopropyl-N-[4-[(6,7-dimethoxy-1,5-naphthyridin-4-yl)oxy]-3-fluorophenyl]-5-(4-fluoro-2-methylphenyl)-6-methyl-4-oxopyridine-3-carboxamide] | < 100 | < 100 | > 300
17 | COc1cc2nccc(Oc3ccc(NC(=O)c4cnc(C)c(-c5ccc(F)cc5)c4O)cc3)c2nc1OC(C)C [Compound 413, 5-(4-fluorophenyl)-4-hydroxy-N-[4-[(7-methoxy-6-propan-2-yloxy-1,5-naphthyridin-4-yl)oxy]phenyl]-6-methylpyridine-3-carboxamide] | < 100 | < 100 | < 100
18 | Cc1cc2nccc(Oc3ccc(NC(=O)c4cnc(C)c(-c5ccc(F)cc5)c4O)cc3F)c2nc1OCCCN1CCOCC1 [Compound 438, N-[3-fluoro-4-[[7-methyl-6-(3-morpholin-4-ylpropoxy)-1,5-naphthyridin-4-yl]oxy]phenyl]-5-(4-fluorophenyl)-4-hydroxy-6-methylpyridine-3-carboxamide] | < 100 | < 100 | < 100
19 | Cc1cc(F)ccc1-c1c(C)ncc(C(=O)Nc2ccc(Oc3ccnc4cc(C)c(F)nc34)c(F)c2)c1O [Compound 427, N-[3-fluoro-4-[(6-fluoro-7-methyl-1,5-naphthyridin-4-yl)oxy]phenyl]-5-(4-fluoro-2-methylphenyl)-4-hydroxy-6-methylpyridine-3-carboxamide] | < 100 | < 100 | > 300
20 | COc1cc2nccc(Oc3ccc(NC(=O)c4c5n(cc(-c6ccc(F)cc6)c4=O)CCC5)cc3)c2nc1OC [Compound 407, N-[4-[(6,7-dimethoxy-1,5-naphthyridin-4-yl)oxy]phenyl]-6-(4-fluorophenyl)-7-oxo-2,3-dihydro-1H-indolizine-8-carboxamide] | < 100 | < 100 | 100 to 300
21 | COc1cnc2c(Oc3ccc(NC(=O)c4ncc(C)n(-c5ccc(F)cc5)c4=O)cc3F)ccnc2c1 [Compound 94, N-[3-Fluoro-4-[(7-methoxy-1,5-naphthyridin-4-yl)oxy]phenyl]-4-(4-fluorophenyl)-5-methyl-3-oxopyrazine-2-carboxamide] | < 100 | < 100 | > 300
22 | COc1ccc2nccc(Oc3ccc(NC(=O)c4ccc(C)n(-c5ccc(F)cc5)c4=O)cc3F)c2n1 [Compound 84, N-[3-Fluoro-4-[(6-methoxy-1,5-naphthyridin-4-yl)oxy]phenyl]-1-(4-fluorophenyl)-6-methyl-2-oxopyridine-3-carboxamide] | < 100 | < 100 | 100 to 300
23 | C=Cc1cc2nccc(Oc3ccc(NC(=O)c4cnc(C)c(-c5ccc(F)cc5C)c4O)cc3F)c2nc1OC [Compound 423, N-[4-[(7-ethenyl-6-methoxy-1,5-naphthyridin-4-yl)oxy]-3-fluorophenyl]-5-(4-fluoro-2-methylphenyl)-4-hydroxy-6-methylpyridine-3-carboxamide] | < 100 | < 100 | > 300
